Reference: patent US7763648B2, “Oxa-steroids derivatives as selective progesterone receptor modulators” (Janssen Pharmaceutica N.V., priority 2006, dated 2010)

Experiments:
[1] = tested on: T47D human breast cancer cells; test: T47D Human Breast Cancer Cells Assay (alkaline phosphatase); assay type: cell-based; conditions: 24 h with test compound, luminescence
Description: T47D Human Breast Cancer Cells Assay
T47D human breast cancer cells were grown in RPMI medium without phenol red (Invitrogen) containing 10% (v/v) heat-inactivated fetal bovine serum (FBS; Hyclone), 1% (v/v) penicillin-streptomycin (Invitrogen), 1% (w/v) glutamine (Invitrogen), and […] insulin (Sigma). Incubation conditions were 37° C. in a humidified 5% (v/v) carbon dioxide environment.
The cells were plated in 96-well tissue culture plates at 10,000 cells per well in assay medium [RPMI medium without phenol red (Invitrogen) containing 5% (v/v) charcoal-treated FBS (Hyclone) and 1% (v/v) penicillin-streptomycin (Invitrogen)]. Two days later, the medium was decanted and test compound or control were added at a final concentration of 0.1% (v/v) dimethyl sulfoxide in fresh assay medium. Twenty-four hours later, an alkaline phosphatase assay was performed using a SEAP kit (BD Biosciences Clontech, Palo Alto, Calif.). Briefly, the medium was decanted and the cells were fixed for 30 minutes at room temperature with 5% (v/v) formalin (Sigma). The cells were washed once with room temperature Hank's buffered saline solution (Invitrogen). Equal volumes (0.05 mL) of 1× Dilution Buffer, Assay Buffer and 1:20 substrate/enhancer mixture were then added. After 1 hour incubation at room temperature in the dark, the lysate was transferred to a white 96-well plate (Dynex) and luminescence was read using a LuminoSkan Ascent (Thermo Electron, Woburn, Mass.).

[2] = tested on: A549 Human lung carcinoma cells; test: A549 Human Lung Cell Assay (transfected, dexamethasone challenge, Luc-assay); assay type: cell-based; conditions: Dexamathasone challenge, 24 h
Description: A549 Human Lung Cell Assay
A549 Human lung carcinoma cells were grown in F-12K Nutrient Mixture containing 10% (v/v) fetal bovine serum (FBS; Invitrogen), 2 mM glutamine and 0.15% sodium dicarbonate (Invitrogen).
A549 cells were split 1 to 3 in 175 cm tissue culture flask. The cells were incubated at 37° C. in CO2 incubator until the cells were 95% confluent (typically 24-30 hours).
The following solutions were prepared in sterile tubes: (a) Solution A: 1.5 μg/ml of DNA in 8.5 ml OPTI-MEM I Reduced Serum Medium. (GIBCO cat# 31985) and (b) Solution B: 6 μl/ml of DMRIE-C Reagent into […] OPTI-MEM I. The two solutions were combined and mixed gently, then incubated at room temperature for 40 minutes.
The A549 cells prepared above were washed with […] of OPTI-MEM I. The medium was removed and 17 ml of the lipid-DNA complex solution was overlayed onto cells. The cells ere then incubated for 16 h at 37° C. in CO2 incubator. The DNA-containing medium was removed and 30 ml of growth medium was added. (5% Charcoal treated FBS) After 5-6 h, the cells were seeded in a 96 well plate and the cells incubated overnight at 37° C. in CO2 incubator.
To each well was then added 5 μl of test compounds and the cells incubated at 37° C. for 10 min. 5 μL of Dexamathasone (CAS [50-02-2]), was then added to each well for challenger and the cells incubated at 37° C. in CO2 incubator for 24 h. 100 μl of Luc-assay buffer was then added into each cell well and the cells incubated for 30 min at room temperature. A 150 μL sample from each well was then transferred into a DYNEX Microlitel plate and read on Top-counter.

| IC50 [1] | IC50 [2] | SMILES |
| --- | --- | --- |
| 5.8 nM | 113 nM | Cc1ccccc1C#C[C@]1(O)CC[C@H]2[C@@H]3OCC4=CC(=O)CCC4=C3[C@@H](c3ccc(N(C)C)cc3)C[C@@]21C [Compound 24, 11-(4-Dimethylamino-phenyl)-17-hydroxy-13-methyl-17-o-tolylethynyl-1,2,8,11,12,13,14,15,16,17-decahydro-6H-7-oxa-cyclopenta[a]phenanthren-3-one] |
| 18.6 nM | 55.5 nM | CN(C)c1ccc(C2C[C@@]3(C)[C@@H](CC[C@@]3(O)C#CC(F)(F)F)[C@@H]3OCC4=CC(=O)CCC4=C23)cc1 (stereo in doubt) [Compound 13, 11-(4-Dimethylamino-phenyl)-17-hydroxy-13-methyl-17-trifluoroprop-1-ynyl-1,2,8,11,12,13,14,15,16,17-decahydro-6H-7-oxa-cyclopenta[a]phenanthren-3-one] |
| 12.5 nM | 48.9 nM | CN(C)c1ccc([C@H]2C[C@@]3(C)[C@@H](CC[C@@]3(O)C#Cc3cccc(Cl)c3)[C@@H]3OCC4=CC(=O)CCC4=C32)cc1 [Compound 20, 17-(3-Chloro-phenylethynyl)-11-(4-dimethylamino-phenyl)-17-hydroxy-13-methyl-1,2,8,11,12,13,14,15,16,17-decahydro-6H-7-oxa-cyclopenta[a]phenanthren-3-one] |
| 1.02 nM | 56.6 nM | CN(C)c1ccc([C@H]2C[C@@]3(C)[C@@H](CC[C@@]3(O)C#Cc3cccc(F)c3)[C@@H]3OCC4=CC(=O)CCC4=C32)cc1 [Compound 17, 11-(4-Dimethylamino-phenyl)-17-(3-fluoro-phenylethynyl)-17-hydroxy-13-methyl-1,2,8,11,12,13,14,15,16,17-decahydro-6H-7-oxa-cyclopenta[a]phenanthren-3-one] |
| 3.67 nM | 41.3 nM | CN(C)c1ccc([C@H]2C[C@@]3(C)[C@@H](CC[C@@]3(O)C#Cc3ccc(C#N)cc3)[C@@H]3OCC4=CC(=O)CCC4=C32)cc1 [Compound 14, 4-[11-(4-Dimethylamino-phenyl)-17-hydroxy-13-methyl-3-oxo-1,2,3,6,8,11,12,13,14,15,16,17-dodecahydro-7-oxa-cyclopenta[a]phenanthren-17-ylethynyl]-benzonitrile] |
| 0.269 nM | 37.6 nM | CN(C)c1ccc([C@H]2C[C@@]3(C)[C@@H](CC[C@@]3(O)C#Cc3ccc(F)cc3)[C@@H]3OCC4=CC(=O)CCC4=C32)cc1 [Compound 8, 11-(4-Dimethylamino-phenyl)-17-(4-fluoro-phenylethynyl)-17-hydroxy-13-methyl-1,2,8,11,12,13,14,15,16,17-decahydro-6H-7-oxa-cyclopenta[a]phenanthren-3-one] |
| 1.08 nM | 64.8 nM | CN(C)c1ccc([C@H]2C[C@@]3(C)[C@@H](CC[C@@]3(O)C#Cc3ccccc3Cl)[C@@H]3OCC4=CC(=O)CCC4=C32)cc1 [Compound 19, 17-(2-Chloro-phenylethynyl)-11-(4-dimethylamino-phenyl)-17-hydroxy-13-methyl-1,2,8,11,12,13,14,15,16,17-decahydro-6H-7-oxa-cyclopenta[a]phenanthren-3-one] |
| 8.6 nM | 62.7 nM | CN(C)c1ccc([C@H]2C[C@@]3(C)[C@@H](CC[C@@]3(O)C#Cc3ccccc3Br)[C@@H]3OCC4=CC(=O)CCC4=C32)cc1 [Compound 21, 17-(2-Bromo-phenylethynyl)-11-(4-dimethylamino-phenyl)-17-hydroxy-13-methyl-1,2,8,11,12,13,14,15,16,17-decahydro-6H-7-oxa-cyclopenta[a]phenanthren-3-one] |
| 185 nM | 167 nM | CN(C)c1ccc(C2C[C@@]3(C)[C@@H](CC[C@@]3(O)C#CC(C)(C)C)[C@@H]3OCC4=CC(=O)CCC4=C23)cc1 (stereo in doubt) [Compound 5, 11-(4-Dimethylamino-phenyl)-17-(3,3-dimethyl-but-1-ynyl)-17-hydroxy-13-methyl-1,2,8,11,12,13,14,15,16,17-decahydro-6H-7-oxa-cyclopenta[a]phenanthren-3-one] |
| 39 nM | 246 nM | CN(C)c1ccc(C2C[C@@]3(C)[C@@H](CC[C@@]3(O)C#Cc3ccncc3)[C@@H]3OCC4=CC(=O)CCC4=C23)cc1 (stereo in doubt) [Compound 28, 11-(4-Dimethylamino-phenyl)-17-hydroxy-13-methyl-17-pyridin-4-ylethynyl-1,2,8,11,12,13,14,15,16,17-decahydro-6H-7-oxa-cyclopenta[a]phenanthren-3-one] |
| 3.2 nM | 80.3 nM | COc1ccc(C#C[C@]2(O)CC[C@H]3[C@@H]4OCC5=CC(=O)CCC5=C4[C@@H](c4ccc(N(C)C)cc4)C[C@@]32C)cc1 [Compound 15, 11-(4-Dimethylamino-phenyl)-17-hydroxy-17-(4-methoxy-phenylethynyl)-13-methyl-1,2,8,11,12,13,14,15,16,17-decahydro-6H-7-oxa-cyclopenta[a]phenanthren-3-one] |
| 2.85 nM | 36.3 nM | Cc1cccc(C#C[C@]2(O)CC[C@H]3[C@@H]4OCC5=CC(=O)CCC5=C4[C@@H](c4ccc(N(C)C)cc4)C[C@@]32C)c1 [Compound 25, 11-(4-Dimethylamino-phenyl)-17-hydroxy-13-methyl-7-m-tolylethynyl-1,2,8,11,12,13,14,15,16,17-decahydro-6H-7-oxa-cyclopenta[a]phenanthren-3-one] |
| 21 nM | 342 nM | CN(C)c1ccc(C2C[C@@]3(C)[C@@H](CC[C@@]3(O)C#Cc3cccnc3)[C@@H]3OCC4=CC(=O)CCC4=C23)cc1 (stereo in doubt) [Compound 27, 11-(4-Dimethylamino-phenyl)-17-hydroxy-13-methyl-17-pyridin-3-ylethynyl-1,2,8,11,12,13,14,15,16,17-decahydro-6H-7-oxa-cyclopenta[a]phenanthren-3-one] |
| 9.55 nM | 33.4 nM | CN(C)c1ccc([C@H]2C[C@@]3(C)[C@@H](CC[C@@]3(O)C#CC3CC3)[C@@H]3OCC4=CC(=O)CCC4=C32)cc1 [Compound 2, 17-Cyclopropylethynyl-11-(4-dimethylamino-phenyl)-17-hydroxy-13-methyl-1,2,8,11,12,13,14,15,16,17-decahydro-6H-7-oxa-cyclopenta[a]phenanthren-3-one] |
| 0.943 nM | 31.3 nM | CN(C)c1ccc([C@H]2C[C@@]3(C)[C@@H](CC[C@@]3(O)C#Cc3ccc(Br)cc3)[C@@H]3OCC4=CC(=O)CCC4=C32)cc1 [Compound 11, 17-(4-Bromo-phenylethynyl)-11-(4-dimethylamino-phenyl)-17-hydroxy-13-methyl-1,2,8,11,12,13,14,15,16,17-decahydro-6H-7-oxa-cyclopenta[a]phenanthren-3-one] |
| 34 nM | 175 nM | CN(C)c1ccc(C2C[C@@]3(C)[C@@H](CC[C@@]3(O)C#Cc3ccccn3)[C@@H]3OCC4=CC(=O)CCC4=C23)cc1 (stereo in doubt) [Compound 26, 11-(4-Dimethylamino-phenyl)-17-hydroxy-13-methyl-17-pyridin-2-ylethynyl-1,2,8,11,12,13,14,15,16,17-decahydro-6H-7-oxa-cyclopenta[a]phenanthren-3-one] |
| 1.6 nM | 22.1 nM | Cc1ccc(C#C[C@]2(O)CC[C@H]3[C@@H]4OCC5=CC(=O)CCC5=C4[C@@H](c4ccc(N(C)C)cc4)C[C@@]32C)cc1 [Compound 7, 11-(4-Dimethylamino-phenyl)-17-hydroxy-13-methyl-17-p-tolylethynyl-1,2,8,11,12,13,14,15,16,17-decahydro-6H-7-oxa-cyclopenta[a]phenanthren-3-one] |
| 3.15 nM | 51 nM | CN(C)c1ccc([C@H]2C[C@@]3(C)[C@@H](CC[C@@]3(O)C#Cc3ccccc3C(F)(F)F)[C@@H]3OCC4=CC(=O)CCC4=C32)cc1 [Compound 22, 11-(4-Dimethylamino-phenyl)-17-hydroxy-13-methyl-17-(2-trifluoromethyl-phenylethynyl)-1,2,8,11,12,13,14,15,16,17-decahydro-6H-7-oxa-cyclopenta[a]phenanthren-3-one] |
